In patent publication US10557853B2 (priority 2012, dated 2020):
Where “and” joins values, the source holds several entries; their conditions need not be identical. Equal entries are not always repeated. Entries after “also recorded” stand apart in the source; their conditions may differ.

Experiments:
GST-M1-1 [1] = target: T1, GST-M1-1 (Homo sapiens, UniProt P09488); assay: Displacement (inhibitor screening) assay with sensor 14-GST-M1-1 complex; type: binding; conditions: 50 μM drug, sensor 14 90 nM, GST M1-1 90 nM
T1 construct: purchased Oxford Biomedical Research (a second source is given: Israel Structural Proteomics Center, recombinant)
T1 sequence (P09488 2-218 limits assumed): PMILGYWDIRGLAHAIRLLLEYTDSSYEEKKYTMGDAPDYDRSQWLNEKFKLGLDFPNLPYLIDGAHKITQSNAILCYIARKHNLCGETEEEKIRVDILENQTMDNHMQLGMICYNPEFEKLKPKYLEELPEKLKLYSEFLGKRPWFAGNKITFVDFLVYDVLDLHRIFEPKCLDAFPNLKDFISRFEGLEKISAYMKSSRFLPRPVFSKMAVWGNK
Experimental: A possible advantage of such systems, however, is that they abrogate the need for using labelled substrates and following the reaction kinetics. Such sensors could, therefore, complement other label-free enzyme assays that rely on indicator displacement mechanisms.
The sensor 14-GST-M1-1 complex was treated with a random library of known drugs.

[2] = tested on: MDA-MB-231 cancer cells, overexpressing GST-P1-1; assay: Live cell fluorescence imaging, MDA-MB-231; type: cell-based; conditions: 2 μM, 15 minutes at 37° C.
Experimental: GST-P1-1 is a cytosolic protein, whereas DNA is located in the nucleouse.
MDA-MB-231 cells were maintained in RPMI supplemented with 10% FBS, L-glutamine, and antibiotics. […] Cell images were analyzed using imageJ.

dsDNA = assay: Fluorescence response to double-stranded DNA; type: binding; conditions: for fluorescence response to addition of dsDNA (FIG. 21e): 100 nM sensor or TO, 400 nM dsDNA, phosphate buffer 5 mM pH 6.5
Experimental: Different 10 derivatives (Table 3) were incubated with increasing concentrations of double-stranded DNA and compared their fluorescence emission prior to and after their incubation in PBS buffer, pH=6.5 (FIG. 9).

GST-A1-1 = target: T2, GST-A1-1 (Homo sapiens, UniProt P08263); assay: GST sensing: fluorescence response to GST-A1-1; type: binding; conditions: 100 nM sensor, 90 nM isozyme
T2 construct: purchased Oxford Biomedical Research (a second source is given: Israel Structural Proteomics Center, recombinant)
T2 sequence (P08263 2-222 limits assumed): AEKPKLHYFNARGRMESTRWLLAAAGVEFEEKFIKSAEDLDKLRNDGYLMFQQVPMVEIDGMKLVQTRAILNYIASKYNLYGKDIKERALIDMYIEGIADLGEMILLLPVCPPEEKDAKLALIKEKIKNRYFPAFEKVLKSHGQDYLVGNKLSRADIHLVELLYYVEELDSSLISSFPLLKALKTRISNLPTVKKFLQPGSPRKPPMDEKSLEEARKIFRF
Experimental: (§1) The most efficient TOPI sensors were identified (FIG. 12) by measuring the fluorescence of the six sensors (100 nM) in the absence and presence of their targets (90 nM) (FIG. 13).
(§2) Based on the obtained binding constants (FIG. 15), a concentration of 100 nM sensor was chosen for GST sensing. This concentration should ensure strong binding and a high S/N ratio.

GST-P1-1 [3] = target: T3, GST-P1-1 (Homo sapiens, UniProt P09211); assay: GST kinetic measurements and inhibitory constants (CDNB/GSH), GST-P1-1; type: biochemical; conditions: Morrison fit; GSH 3 mM, CDNB 1.5 mM; read-out: approximate inhibition constant Ki, GST-P1-1
T3 construct: purchased Oxford Biomedical Research (a second source is given: Israel Structural Proteomics Center, recombinant)
Experimental: (§3) (FIGS. 16- and 19). The concentrations of different GSTs, GSH, and CDNB were 20 nM, 350 μM, and 700 μM, respectively. The GST activity was measured spectrophotometrically using chloro-2,4-dinitrobenzene (CDNB) and GSH as substrates, in phosphate buffer (10 mM, pH 6.5). In a typical experiment, GST and sensors 14 or 140 were incubated for 10 min at 25° C. and then GSH and CDNB were subsequently added. The formation of S-(2,4-dinitrophenyl)-glutathione was monitored using the microplate reader at λ=340 nm. […] The concentrations of GSH and CDNB were 3 mM and 1.5 mM, respectively. The Km values were determined using 20 nM of each GST isoform, 3 mM GSH, and variable CDNB concentrations (50 μM-2 mM). Data were fit to the Michaelis-Menten equation using Sigmaplot version 12.0 statistical software (Systat) to obtain the Km values.
(§4) The data were analyzed using Graphpad Prism 6.0 and fitted to the Morrison equation for tight binding substrates (FIG. 18 and FIG. 19(b,c)).
(§5) [formula] where Y is the enzyme activity, X is different concentrations of inhibitor (compound 14 or 140), E is the enzyme concentration, S is the concentration of substrate, Km is the Michaelis-Menten constant determined in an experiment without inhibitor, and V0 is the initial velocity.

GST-A2-2 [4] = target: T4, GST-A2-2 (Homo sapiens, UniProt P09210); assay: GST sensing: fluorescence response to GST-A2-2; type: binding; conditions: 100 nM sensor, 90 nM isozyme
T4 construct: purchased Oxford Biomedical Research (a second source is given: Israel Structural Proteomics Center, recombinant)
T4 sequence (P09210 2-222 limits assumed): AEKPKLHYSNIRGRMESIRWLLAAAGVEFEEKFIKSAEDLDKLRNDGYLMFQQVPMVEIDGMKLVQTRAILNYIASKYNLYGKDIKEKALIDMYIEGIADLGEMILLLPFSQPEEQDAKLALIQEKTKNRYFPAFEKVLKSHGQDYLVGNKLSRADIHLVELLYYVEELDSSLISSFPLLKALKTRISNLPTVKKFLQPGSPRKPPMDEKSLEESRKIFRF
Experimental: as §1, §2

GST-A2-2 [5] = target: T4, GST-A2-2; assay: GST kinetic measurements and inhibitory constants (CDNB/GSH), GST-A2-2; type: biochemical; conditions: Morrison fit; GSH 3 mM, CDNB 1.5 mM; read-out: approximate inhibition constant Ki, GST-A2-2
Experimental: as §3, §4, §5

GST-P1-1 [6] = target: T3, GST-P1-1; assay: Fluorescence binding study, dissociation constant with GST-P1-1; conditions: fluorescence titration, phosphate buffer 5 mM pH 6.5; read-out: approximate dissociation constant Kd, GST-P1-1
Experimental: The approximate dissociation constants were determined for GST-M1-1 and GST-P1-1. For these experiments, the concentration of the sensor was chosen according to the enzymatic assays (Ki values, FIG. 18, 19). It was chosen to be lower than the Ki (expected Kd), but such that would also generate a detectable and reproducible emission signal in the plate reader. […] The data were analyzed using Graphpad Prism 6.0 and fitted to the equation: Y=Bmax·X/(kd+X) where Bmax is the maximum binding and X is the concentration of protein.

GST-M1-1 [7] = target: T1, GST-M1-1; assay: GST sensing: fluorescence response to GST-M1-1; type: binding; conditions: 100 nM sensor
Experimental: as §1, §2
Two different mixtures of GST isoforms were prepared: one that contained all the GST isoforms (20 nM of each GST, in total 160 nM) (A1-1k2-2, P1-1, M1-1, T1-1, O1-1, Z1-1, and K1-1) and the second mixture contained all the GST isoforms except GST-M1-1.

GST-P1-1 [8] = target: T3, GST-P1-1; assay: GST sensing: fluorescence response to GST-P1-1; type: binding; conditions: 100 nM sensor
Experimental: as §1, §2

streptavidin (SAv) = streptavidin (SAv) (Streptomyces avidinii, UniProt P22629); assay: SAv sensing: fluorescence response of TOPI sensors; type: binding; conditions: 100 nM sensor, 90 nM SAv
Experimental: as §1
(§6) Fluorescence values were recorded immediately after addition of the proteins (FIGS. 12d and 13b).

avidin (Av) = avidin (Av) (Gallus gallus, UniProt P02701); assay: Av sensing: fluorescence response of TOPI sensors; type: binding; conditions: 100 nM sensor, 90 nM Av; for enhancement in fluorescence emission upon addition of Av: phosphate buffer 15 mM pH 7.3
Experimental: as §1, §6

AChE [9] = target: T5, AChE (Tetronarce californica, UniProt P04058); assay: AChE kinetic measurements (Ellman method); type: biochemical; conditions: for inhibition of AChE activity: 8 pM AChE, sensor 36 50 nM, sensor 37 2 μM
T5 construct: gift from Prof; Israel Silman Lab (Weizmann Institute of Science)
Experimental: The AChE activity was measured spectrophotometrically using 5,5′-dithiobis(2-nitrobenzoic acid) (DTNB) and acetylthiocholine iodide as substrates, in phosphate buffer (50 mM, pH 8.0). […] The final concentrations of AChE, DTNB, and acetylthiocholine iodide were 8 pM, 0.4 mM, and 0.4 mM, respectively.

AChE [10] = target: T5, AChE; assay: AChE sensing: fluorescence response of TOPI sensors; type: binding; conditions: 100 nM sensor, 90 nM AChE
Experimental: Fluorescence values were recorded immediately after addition of the proteins (FIGS. 12a and 13a).

healthy MCF-10A cells = assay: Live cell fluorescence imaging, MCF-10A; type: cell-based; conditions: 2 μM

T3 sequence (P09211 2-210 limits assumed): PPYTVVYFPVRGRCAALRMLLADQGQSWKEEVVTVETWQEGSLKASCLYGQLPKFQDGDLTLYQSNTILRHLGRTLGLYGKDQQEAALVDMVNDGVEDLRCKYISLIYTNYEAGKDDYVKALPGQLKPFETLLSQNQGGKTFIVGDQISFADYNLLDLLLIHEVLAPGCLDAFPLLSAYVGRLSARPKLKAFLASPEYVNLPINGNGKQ
Sequence of avidin (Av) (P02701 25-152): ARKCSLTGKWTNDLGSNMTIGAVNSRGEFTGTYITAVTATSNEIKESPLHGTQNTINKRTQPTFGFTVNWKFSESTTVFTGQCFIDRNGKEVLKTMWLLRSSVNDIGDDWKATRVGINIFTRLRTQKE
T5 sequence (P04058 22-564): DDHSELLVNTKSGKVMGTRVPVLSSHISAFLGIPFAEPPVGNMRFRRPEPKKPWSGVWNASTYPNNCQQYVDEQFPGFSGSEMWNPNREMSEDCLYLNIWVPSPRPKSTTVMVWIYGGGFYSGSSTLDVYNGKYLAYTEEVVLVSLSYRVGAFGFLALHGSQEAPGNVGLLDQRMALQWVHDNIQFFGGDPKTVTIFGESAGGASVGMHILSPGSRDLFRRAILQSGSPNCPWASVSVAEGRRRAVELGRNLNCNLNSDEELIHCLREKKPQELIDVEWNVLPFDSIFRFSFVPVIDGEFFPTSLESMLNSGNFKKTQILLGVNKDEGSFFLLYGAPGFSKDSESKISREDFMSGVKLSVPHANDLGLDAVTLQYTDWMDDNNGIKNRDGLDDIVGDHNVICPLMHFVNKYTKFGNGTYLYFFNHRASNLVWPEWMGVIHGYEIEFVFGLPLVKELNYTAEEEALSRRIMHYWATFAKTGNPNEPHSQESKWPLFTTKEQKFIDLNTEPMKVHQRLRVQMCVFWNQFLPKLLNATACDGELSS
Sequence of streptavidin (SAv) (P22629 25-183): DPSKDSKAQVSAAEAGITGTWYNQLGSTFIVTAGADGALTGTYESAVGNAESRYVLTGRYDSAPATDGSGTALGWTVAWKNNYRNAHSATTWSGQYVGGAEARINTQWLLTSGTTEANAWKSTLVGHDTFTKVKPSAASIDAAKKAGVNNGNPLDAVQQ

C=C(CC)C(=O)c1ccc(OCC(=O)O)c(Cl)c1Cl [EA, Ethacrynic acid]
displacement of sensor 14 from GST-M1-1 (reduction in emission) (GST-M1-1 [1]): selective identification

CN1C(=Cc2cc[n+](C)c3ccccc23)Sc2ccccc21 [TO, Thiazole Orange, reference compound]
localization of fluorescence in live MDA-MB-231 cells [2]: strong green emission mainly from the nucleus | fluorescence response to addition of dsDNA (FIG. 21e) (dsDNA): strong fluorescence signal

CCCCCCSC[C@H](NC(=O)CC[C@H](N)C(=O)O)C(=O)NCC(=O)O [s-hexyl GSH]
displacement of sensor 14 from GST-M1-1 (reduction in emission) (GST-M1-1 [1]): selective identification

C=C(CC)C(=O)c1ccc(OCC(=O)NCCCn2cc(CNC(=O)OCCCN3C=C/C(=C\c4sc5ccccc5[n+]4CCCOC(=O)NCc4cn(CCCNC(=O)COc5ccc(C(=O)C(=C)CC)c(Cl)c5Cl)nn4)c4ccccc43)nn2)c(Cl)c1Cl [sensor 14]
fluorescence detection of GST-A1-1 (GST-A1-1): could not be detected | Ki (GST-P1-1 [3]): 49 nM | fluorescence detection of GST-A2-2 (GST-A2-2 [4]): could not be detected | Ki (GST-A2-2 [5]): 20 nM | Kd (GST-P1-1 [6]): 38 nM | fluorescence enhancement in the presence of GST-M1-1 (GST-M1-1 [7]; 90 nM GST-M1-1, phosphate buffer 5 mM pH 6.5, recorded immediately): 55 fold | detection of GST-M1-1 in a mixture of GST isozymes (GST-M1-1 [7]; GST-M1-1 20 nM plus seven additional GSTs 20 nM each): selective detection of GST-M1-1 in a mixture of isoforms | time course of emission in the presence of GST-P1-1 (GST-P1-1 [8]; 90 nM GST P1-1, phosphate buffer 5 mM pH 6.5): slowly increased over a period of 2 hours | fluorescence response to addition of dsDNA (FIG. 21e) (dsDNA): negligible fluorescence responses; also recorded: did not exhibit any change in its fluorescence at 540 nm | change in fluorescence upon addition of dsDNA (Example 3) (dsDNA; 500 nM TO derivative, 100-900 nM dsDNA, PBS pH 6.5, emission 530 nm): did not exhibit any change in its fluorescence at 530 nm

O=C(CCCCC1SCC2NC(=O)NC21)NCCOCCOCCNC(=O)CCN1C=C/C(=C\c2sc3ccccc3[n+]2CCC(=O)NCCOCCOCCNC(=O)CCCCC2SCC3NC(=O)NC32)c2ccccc21.[I-] (centres unmarked) [sensor 34]
fluorescence response to SAv (streptavidin (SAv)): weakly; also recorded: hardly detected | fluorescence response to Av (avidin (Av)): strongly | enhancement in fluorescence emission upon addition of Av (avidin (Av)): 16 fold | fluorescence response to addition of dsDNA (FIG. 21e) (dsDNA): negligible fluorescence responses

O=C(CCCCC1SCC2NC(=O)NC21)NCCNC(=O)CCN1C=C/C(=C\c2sc3ccccc3[n+]2CCC(=O)NCCNC(=O)CCCCC2SCC3NC(=O)NC32)c2ccccc21.[I-] (centres unmarked) [sensor 35]
fluorescence response to SAv (streptavidin (SAv)): weakly; also recorded: hardly detected | fluorescence response to Av (avidin (Av)): strongly | enhancement in fluorescence emission upon addition of Av (avidin (Av)): 7 fold

O=C(CCN1C=C/C(=C\c2sc3ccccc3[n+]2CCC(=O)NCCCCCCNc2c3c(nc4ccccc24)CCCC3)c2ccccc21)NCCCCCCNc1c2c(nc3ccccc13)CCCC2.[I-] [sensor 36]
inhibition of AChE activity (AChE [9]): strong bivalent inhibitor; also recorded: full inhibition at low nanomolar concentration | Ki (AChE [9]; competitive inhibition fit, acetylthiocholine iodide substrate, read-out: approximate inhibition constant Ki, AChE): 0.32 nM and 0.31 nM | detection of AChE (AChE [10]): could detect AChE | enhancement in fluorescence emission upon addition of AChE (AChE [10]; phosphate buffer 20 mM pH 8): 22 fold

O=C(CCN1C=C/C(=C\c2sc3ccccc3[n+]2CCC(=O)NCCNc2c3c(nc4ccccc24)CCCC3)c2ccccc21)NCCNc1c2c(nc3ccccc13)CCCC2.[I-] [sensor 37]
inhibition of AChE activity (AChE [9]): inhibited the AChE, activity only at 2 μM | detection of AChE (AChE [10]): could detect AChE

C=C(CC)C(=O)c1ccc(OCC(=O)NCCNC(=O)CCN2C=C/C(=C\c3sc4ccccc4[n+]3CCC(=O)NCCNC(=O)COc3ccc(C(=O)C(=C)CC)c(Cl)c3Cl)c3ccccc32)c(Cl)c1Cl [sensor 140, (E)-3-(3-((2-(2-(2,3-dichloro-4-(2-methylenebutanoyl)phenoxy)acetamido)ethyl)amino)-3-oxopropyl)-2-((1-(3-((2-(2-(2,3-dichloro-4-(2-methylenebutanoyl)phenoxy)acetamido)ethyl)amino)-3-oxopropyl)quinolin-4(1H)-ylidene)methyl)benzoidithiazol-3-ium iodide]
Kd (GST-P1-1 [6]): 29 nM | localization of fluorescence in live MDA-MB-231 cells [2]: distributed within the cell | emission signal in MCF-10A cells (healthy MCF-10A cells): much weaker emission signal | turn-on fluorescence signal in the presence of GST-P1-1 (GST-P1-1 [8]; 90 nM GST-P1-1, after 30 min incubation): 33 fold | fluorescence response to addition of dsDNA (FIG. 21e) (dsDNA): negligible fluorescence responses
